# Test results reported in patent publication US20100048480A1, “PRODUCTION OF ANTI-MICROBIAL PEPTIDES” (priority 2006, published 2010).
# Tested on: Citrobacter rodentium
# Experiment: Functionality assay (antimicrobial activity, killing of bacteria)
# Assay type: cell-based
# Procedure: One skilled in the art will appreciate that similar methods can be used to confirm the functionality of any AMP of interest, such as a defensin. The OD600 of a Citrobacter rodentium overnight culture was measured and a dilution series was performed. 100 μl of a 7.1×10^2 bacteria/ml dilution was used in the functionality assay. […] For LL37, the positive control had 20 μM pure synthetic LL37 (Microchem Facility, Emory) added, and LL37 peptide obtained in Example 2 was added at 8.5 μg (250 μl) or 17 μg (500 μl) (FIG. 3). 20 μM concentration of the synthetic peptides equals 8.8 μg added.
# [1] = CRAMP peptide of Example 2 at 30 μM or 53 μM, positive control 50 μM CRAMP (Sigma Genosys), FIG. 2
Substance,efficiency in killing Citrobacter rodentium compared with commercially available peptide [1],"efficiency in killing Citrobacter rodentium compared with commercially available peptide (LL37 peptide of Example 2 at 8.5 μg (250 μl) or 17 μg (500 μl), positive control 20 μM synthetic LL37, FIG. 3)"
"CRAMP-FLAG-tag: CRAMP with C-terminal FLAG tag, released by sumoase from His tag-SUMO-CRAMP-FLAG-tag (HMGLLRKGGEKIGEKLKKIGQKIKNFFQKLVPQPEQDYKDDDDKG; C-terminal FLAG tag; Resulting peptide when SEQ ID NO 45 treated with sumoase)",decrease in efficacy,
"CRAMP: mouse cathelicidin-related antimicrobial peptide, active last 34 aa, released by sumoase from recombinant His tag-SUMO-CRAMP (HMGLLRKGGEKIGEKLKKIGQKIKNFFQKLVPQPEQ; resulting protein when SEQ ID NO 47 treated with sumoase)",almost as efficient in killing Citrobacter rodentium as the commercially available peptide,
"LL37: human cathelicidin LL37 plus N-terminal His and Met, released by sumoase from His tag-SUMO-LL37 (HMLLGDFFRKSKEKIGKEFKRIVQRIKDFLRNLVPRTES; resulting peptide when SEQ ID NO 40 treated with sumoase.)",,almost as efficient in killing Citrobacter rodentium as the commercially available peptide
